Test results taken from patent US9139569B2, “Fused tricyclic aryl compounds useful for the treatment of viral diseases” (Merck Sharp & Dohme Corp., priority 2009, dated 2015).

What was measured:
HCV replicon genotype 2a = experiment: Cell-based HCV replicon assay, genotype 2a; conditions: Hepatitis C virus, 72 h, HCV replicon cells, replicon RNA by real time PCR on day 3, read-out: EC50 (nM) (gt2a)
Procedure: (§1) To measure cell-based anti-HCV activity of selected compounds of the present invention, replicon cells were seeded at 5000 cells/well in 96-well collagen I-coated Nunc plates in the presence of the test compound. Various concentrations of test compound, typically in 10 serial 2-fold dilutions, were added to the assay mixture, with the starting concentration ranging from 250 μM to 1 μM. The final concentration of DMSO was 0.5%, fetal bovine serum was 5%, in the assay media. Cells were harvested on day 3 by the addition of 1× cell lysis buffer (Ambion cat #8721). The replicon RNA level was measured using real time PCR (Taqman assay). The amplicon was located in 5B. The PCR primers were: 5B.2F, ATGGACAGGCGCCCTGA (SEQ. ID NO. 1); 5B.2R, […] (SEQ. ID NO. 2); the probe sequence was FAM-labeled CACGCCATGCGCTGCGG (SEQ. ID NO. 3). GAPDH RNA was used as endogenous control and was amplified in the same reaction as NS5B (multiplex PCR) using primers and VIC-labeled probe recommended by the manufacturer (PE Applied Biosystem). The real-time RT-PCR reactions were run on ABI PRISM 7900HT Sequence Detection System using the following program: 48° C. for 30 min, 95° C. for 10 min, 40 cycles of 95° C. for 15 sec, 60° C. for 1 min. The ACT values (CT5B-CTGAPDH) were plotted against the concentration of test compound and fitted to the sigmoid dose-response model using XLfit4 (MDL). EC50 was defined as the concentration of inhibitor necessary to achieve ΔCT=1 over the projected baseline; EC90 the concentration necessary to achieve ΔCT=3.2 over the baseline. Alternatively, to quantitate the absolute amount of replicon RNA, a standard curve was established by including serially diluted T7 transcripts of replicon RNA in the Taqman assay. All Taqman reagents were from PE Applied Biosystems. Such an assay procedure was described in detail in e.g. Malcolm et al., Antimicrobial Agents and Chemotherapy 50: 1013-1020 (2006).
(§2) HCV replicon assay data was calculated for genotypes 1a, 1b, 2a and 3a for selected compounds of the present invention using this method and is provided in the table below.

HCV replicon genotype 1a = experiment: Cell-based HCV replicon assay, genotype 1a; conditions: Hepatitis C virus, 72 h, HCV replicon cells, replicon RNA by real time PCR on day 3, read-out: EC50 (nM) (gt1a)
Procedure: as §1, §2

HCV replicon genotype 3a = experiment: Cell-based HCV replicon assay, genotype 3a; conditions: Hepatitis C virus, 72 h, HCV replicon cells, replicon RNA by real time PCR on day 3, read-out: EC50 (nM) (gt3a)
Procedure: To measure cell-based anti-HCV activity of selected compounds of the present invention, replicon cells were seeded at 5000 cells/well in 96-well collagen I-coated Nunc plates in the presence of the test compound. Various concentrations of test compound, typically in 10 serial 2-fold dilutions, were added to the assay mixture, with the starting concentration ranging from 250 μM to 1 μM. The final concentration of DMSO was 0.5%, fetal bovine serum was 5%, in the assay media. Cells were harvested on day 3 by the addition of 1× cell lysis buffer (Ambion cat #8721). The replicon RNA level was measured using real time PCR (Taqman assay). The amplicon was located in 5B. The PCR primers were: 5B.2F, ATGGACAGGCGCCCTGA (SEQ. ID NO. 1); 5B.2R, […] (SEQ. ID NO. 2); the probe sequence was FAM-labeled CACGCCATGCGCTGCGG (SEQ. ID NO. 3). GAPDH RNA was used as endogenous control and was amplified in the same reaction as NS5B (multiplex PCR) using primers and VIC-labeled probe recommended by the manufacturer (PE Applied Biosystem). […] Alternatively, to quantitate the absolute amount of replicon RNA, a standard curve was established by including serially diluted T7 transcripts of replicon RNA in the Taqman assay. […]
as §2

HCV replicon genotype 1b = experiment: Cell-based HCV replicon assay, genotype 1b; conditions: Hepatitis C virus, 72 h, HCV replicon cells, replicon RNA by real time PCR on day 3, read-out: EC50 (nM) (gt1b)
Procedure: as §1, §2

## COC(=O)N[C@H](C(=O)N1CCC[C@H]1c1ncc(-c2ccc3cc4cc(-c5cnc([C@@H]6CCCN6C(=O)[C@@H](NC(=O)OC)C(C)C)[nH]5)ccc4cc3c2)[nH]1)C(C)C [Compound 36]
HCV replicon genotype 2a
  EC50: 0.039 nM
HCV replicon genotype 1a
  EC50: 0.001 nM
HCV replicon genotype 3a
  EC50: 0.01 nM

## COC(=O)N[C@H](C(=O)N1CCC[C@H]1c1ncc(-c2ccc3nc4cc(-c5cnc([C@@H]6CCCN6C(=O)[C@@H](NC(=O)OC)C(C)C)[nH]5)ccc4cc3c2)[nH]1)C(C)C [Compound 37]
HCV replicon genotype 2a
  EC50: 0.71 nM
HCV replicon genotype 1a
  EC50: 0.047 nM
HCV replicon genotype 3a
  EC50: 0.04 nM
HCV replicon genotype 1b
  EC50: 0.001 nM

## COC(=O)N[C@H](C(=O)N1CCC[C@H]1c1ncc(-c2ccc3nc4cc(-c5cnc([C@@H]6CCCN6C(=O)[C@@H](NC(=O)OC)C(C)C)[nH]5)ccc4nc3c2)[nH]1)C(C)C [Compound 38]
HCV replicon genotype 1a
  EC50: 0.035 nM
HCV replicon genotype 1b
  EC50: 0.015 nM

## COC(=O)N[C@H](C(=O)N1CCC[C@H]1c1ncc(-c2cc3cc4oc(-c5cnc([C@@H]6CCCN6C(=O)[C@@H](NC(=O)OC)C(C)C)[nH]5)cc4cc3o2)[nH]1)C(C)C [Compound 39]
HCV replicon genotype 2a
  EC50: 0.05 nM
HCV replicon genotype 1a
  EC50: 0.02 nM
HCV replicon genotype 1b
  EC50: 0.001 nM
